Data from patent publication US6846933B1, “Antimycobacterial compounds and method for making the same” (priority 2000, dated 2005).
In brackets after ≈: the same amount, converted by molar mass. Where two headings read alike, the source gives them in different places.

Experiments:
[1] = system: Mycobacterium tuberculosis H37Rv (ATCC 27294); experiment: TAACF MIC / primary screen vs M. tuberculosis H37Rv (MABA or BACTEC 460); type: cell-based; conditions: for MIC: Mycobacterium tuberculosis
M. tuberculosis INH-r = experiment: microbe, parasite or virus in culture; type: cell-based; conditions: Mycobacterium tuberculosis, read-out: MBC vs INH-r (ug/ml)
M. tuberculosis H37Rv = experiment: Minimum bactericidal concentration vs H37Rv; type: cell-based; conditions: Mycobacterium tuberculosis, read-out: MBC vs H37Rv (ug/ml)
M. tuberculosis RMP-R = experiment: microbe, parasite or virus in culture; type: cell-based; conditions: Mycobacterium tuberculosis, read-out: MBC vs RMP-R (ug/ml)
[2] = system: M. tuberculosis Erdman (ATCC 35801) in monolayers of mouse bone marrow macrophages; experiment: Killing of M. tuberculosis Erdman in mouse bone marrow macrophages; type: cell-based; conditions: Mycobacterium tuberculosis, Bone marrow macrophage, 168 h
M. tuberculosis EMB-R = experiment: microbe, parasite or virus in culture; type: cell-based; conditions: Mycobacterium tuberculosis, read-out: MIC EMB-R (ug/ml)
M. tuberculosis Erdman = experiment: MIC vs M. tuberculosis Erdman; type: cell-based; conditions: Mycobacterium tuberculosis
M. avium (ATCC 25291) = experiment: TAACF M. avium assay; type: cell-based, Mycobacterium avium; parameters: % Inhibition: concentration or dose not given beside the values; conditions: for MIC: Mycobacterium avium, ATCC25291, M. avium assay; for % Inhibition: M. avium assay
M. tuberculosis ETA-R = experiment: MIC vs ETA-R M. tuberculosis; type: cell-based; conditions: Mycobacterium tuberculosis, read-out: MIC ETA-R (ug/ml)
VERO cells = experiment: Cytotoxicity in VERO cells (MTT, 72 hours); type: cell-based; conditions: Chlorocebus sabaeus
M. tuberculosis TAC-R = experiment: microbe, parasite or virus in culture; type: cell-based; conditions: Mycobacterium tuberculosis, Bactec, strain panel
[3] = Quantitative estimate of relative lipophilicity (chloroform/water partitioning vs isoniazid); conditions: ratio chloroform:water compared to same ratio for isoniazid as standard (INH = unity)
M. kansasii swank = experiment: Broth dilution MIC vs M. kansasii swank; type: cell-based; conditions: Mycobacterium kansasii; modified 7H10 broth, lowest concentration with no turbidity
[4] = M. tuberculosis assay, Tables 4 and 5, read-out: MIC
[5] = M. tuberculosis assay, Table 13, primary screen
[6] = M. tuberculosis assay, Table 13, primary screen, read-out: MIC
[7] = Bactec, strain panel, read-out: MIC H37Rv
[8] = Bactec, strain panel, read-out: MIC Erdman
[9] = BACTEC, Tables 2 and 3, read-out: MIC

With `CCC/C(CC(=O)OCC)=N/NC(=O)c1ccncc1` [Sample ID 101702] the MIC ([1]; M. tuberculosis assay, Alamar, Tables 7 and 9) was 0.39 µg/mL (≈ 1.41 µM), the MBC (M. tuberculosis INH-r) was over 12.5 µg/mL and the MBC (M. tuberculosis H37Rv) was at least 0.19 µg/mL. For the same compound, the MBC (M. tuberculosis RMP-R) was 0.39 µg/mL (≈ 1.41 µM).

In the case of `O=C(N/N=C/c1ccc(F)cc1)c1ccncc1` [Sample ID 103167], the MIC [1, 4] is reported as 0.1 µg/mL (≈ 0.411 µM), the EC90 [2] is reported as 0.02 µg/mL (≈ 0.0822 µM) and the EC99 [2] is reported as 0.07 µg/mL.

In the case of `CC(=O)N1N=C(c2ccncc2)OC1c1c(F)cccc1F` (centres unmarked) [Sample ID 122492], the “% Inhibition” value [1, 5] is reported as 99% and the MIC [1, 6] is reported as under 12.5 µg/mL.

In the case of `CCOC(=O)/C(CCc1ccccc1)=N\NC(=O)c1ccncc1` [Sample ID 132358], the MIC [1, 7] is reported as 0.1 µg/mL (≈ 0.307 µM), the “MIC (ug/mg)” value ([1]; Table 1, M. tuberculosis assay, Bactec) is reported as 0.1 µg/mL (≈ 0.307 µM) and the MIC (M. tuberculosis EMB-R) is reported as over 3.2 µg/mL. It also gave an MIC (M. tuberculosis Erdman; [8]) of 0.1 µg/mL (≈ 0.307 µM), an MIC (M. avium (ATCC 25291); [9]) of over 3.2 µg/mL and an MIC (M. tuberculosis ETA-R) of 0.8 µg/mL (≈ 2.46 µM).

In the case of `CO[C@H]1/C=C/O[C@@]2(C)Oc3c(C)c(O)c4c(O)c(c(/C=N/N5CCN(C)CC5)c(O)c4c3C2=O)NC(=O)/C(C)=C\C=C\[C@H](C)[C@H](O)[C@@H](C)[C@@H](O)[C@@H](C)[C@H](OC(C)=O)[C@@H]1C` [RMP, rifampin, reference compound], the MIC ([1]; read-out: MIC of RMP vs H37Rv (Comment, Table 9), control in MBC test) is reported as 0.5 µg/mL, the “% inhibition vs. M. tuberculosis (RMP control, Comment)” value ([1]; RMP at its MIC 0.25 μg/ml) is reported as 99% and the IC50 (VERO cells) is reported as 68 µg/mL (≈ 82.6 µM).

Compound `O=C(N/N=C/c1cc(Cl)ccc1Cl)c1ccncc1` [Sample ID 117150] has an MIC (M. tuberculosis TAC-R) of over 3.25 µg/mL, an MIC [1, 7] of under 0.05 µg/mL and an MIC ([1]; M. tuberculosis assay, Bactec, Tables 6, 7, 8, read-out: MIC) of 0.1 µg/mL (≈ 0.34 µM). For the same compound, the MIC (M. tuberculosis Erdman; read-out: MIC Erdman (ug/ml)) was under 0.05 µg/mL, the “% Inhibition” value (M. avium (ATCC 25291); Alamar, Table 11) was 0% and the MIC (M. avium (ATCC 25291); Alamar, Table 11, read-out: MIC) was over 12.5 µg/mL. The MIC (M. avium (ATCC 25291); [9]) was over 3.25 µg/mL.

For `CC(/C=N/NC(=O)c1ccncc1)=C\c1ccccc1` [Sample ID 103062], the MIC [1, 4] was 0.2 µg/mL (≈ 0.754 µM), the EC90 [2] was 0.03 µg/mL (≈ 0.113 µM) and the EC99 [2] was 0.15 µg/mL.

With `CC(=O)N1N=C(c2ccncc2)OC1c1ccc(Cl)c([N+](=O)[O-])c1` (centres unmarked) [Sample ID 122491] the “% Inhibition” value [1, 5] was 98% and the MIC [1, 6] was under 12.5 µg/mL.

`CC1C/C(=N/NC(=O)c2ccncc2)CC(C)(C)C1` (centres unmarked) [Sample ID 114353] gave an MIC [1, 7] of under 0.1 µg/mL, an MIC ([1]; M. tuberculosis assay, Bactec, Tables 6, 7, 8) of over 6.25 µg/mL and an MIC (M. tuberculosis EMB-R) of under 0.1 µg/mL. For the same compound, the MIC (M. tuberculosis Erdman; [8]) was under 0.1 µg/mL.

`CC(C)=NNC(=O)c1ccncc1` [Sample ID 102752] showed an MIC [1, 4] of 0.1 µg/mL (≈ 0.564 µM), an EC90 [2] of 0.03 µg/mL (≈ 0.169 µM) and an EC99 [2] of 0.14 µg/mL.

With `CC(=O)N1N=C(c2ccncc2)OC1c1c(Cl)cccc1Cl` (centres unmarked) [Oxadiazoline Example 4, 2-(2,6-Dichlorophenyl)-3-acetyl-5-(4-pyridyl)-1,3,4-oxadiazoline] the “Relative Lipophilicity” value [3] was 35,667.

Compound `CC(=O)NNC(=O)c1ccncc1` has a melting point of 158 to 160 °C.

In the case of `O=C(NNC(=S)Nc1ccccc1)c1ccncc1` [Sample ID 122697], the “% Inhibition” value [1, 5] is reported as 79% and the MIC [1, 6] is reported as over 12.5 µg/mL.

For `CC(=O)N1N=C(c2ccncc2)OC1c1ccc(Cl)c(Cl)c1` (centres unmarked) [Sample ID 123669], the “% Inhibition” value (M. avium (ATCC 25291); Bactec, Tables 10-12) was 65% and the MIC (M. avium (ATCC 25291); Bactec, Tables 10-12, read-out: MIC) was over 12.5 µg/mL.

`NNC(=O)c1ccncc1` [INH, isonicotinic acid hydrazide, reference compound] showed an MIC (M. kansasii swank) of 1 µg/mL (≈ 7.29 µM), an EC90 [2] of 0.21 µg/mL (≈ 1.53 µM) and an EC99 [2] of over 0.4 µg/mL. It also gave an IC50 (VERO cells) of over 1000 µg/mL.

With `CCCCC(=O)NNC(=O)c1ccncc1` the melting point was 162 °C.

With `COc1cc(/C=N/NC(=O)c2ccncc2)ccc1O` [Sample ID 102858] the MIC [1, 4] was 0.2 µg/mL (≈ 0.737 µM), the EC90 [2] was 0.03 µg/mL (≈ 0.111 µM) and the EC99 [2] was 0.12 µg/mL.

For `CCCCCCCCCCCC/C=N/NC(=O)c1ccncc1` [Sample ID 102094], the MIC [1, 4] was 0.2 µg/mL (≈ 0.63 µM), the EC90 [2] was 0.08 µg/mL (≈ 0.252 µM) and the EC99 [2] was over 3.2 µg/mL.

With `O=C(NNC(=S)Nc1ccc(Cl)cc1)c1ccncc1` [Sample ID 126719] the “% Inhibition” value (M. avium (ATCC 25291); Bactec, Tables 10-12) was 84% and the MIC (M. avium (ATCC 25291); Bactec, Tables 10-12) was over 12.5 µg/mL.
